Source: ChEMBL document CHEMBL4364344, “Design, synthesis and evaluation of activity and pharmacokinetic profile of new derivatives of xanthone and piperazine in the central nervous system” (Bioorg Med Chem Lett, 2019)

Columns and labels:
[1] = molecular target: Serotonin 2 (5-HT2) receptor (Rattus norvegicus) (UniProt P30994+P08909+P14842); assay: Displacement of [3H]ketanserin from 5-HT2 receptor in Wistar rat brain cortex membrane at 10 uM after 40 mins by scintillation counting analysis relative to control; format: cell membranes
[2] = tested on: Mus musculus; assay: Anxiolytic activity in albino Swiss CD-1 mouse assessed as increase in number of punished crossings at 5 mg/kg, ip administered 30 mins prior to test by four-plate test relative to control; format: functional
[3] = tested on: Mus musculus; assay: Anxiolytic activity in albino Swiss CD-1 mouse assessed as increase in number of punished crossings at 10 mg/kg, ip administered 30 mins prior to test by four-plate test relative to control; format: functional
[4] = Terminal half life in CD-1 mouse plasma at 5 mg/kg, ip measured up to 480 mins by LC/ESI-MS/MS analysis; format: ADME, organism-based; conditions: read-out: beta t1/2
[5] = Cmax in CD-1 mouse plasma at 5 mg/kg, ip measured up to 480 mins by LC/ESI-MS/MS analysis; format: ADME, organism-based; set-up: dose 5 mg/kg, route intraperitoneal
[6] = Tmax in CD-1 mouse plasma at 5 mg/kg, ip measured up to 480 mins by LC/ESI-MS/MS analysis; format: ADME, organism-based
[7] = Apparent volume of distribution in CD-1 mouse plasma at 5 mg/kg, ip measured up to 480 mins by LC/ESI-MS/MS analysis; format: ADME, organism-based
[8] = Apparent clearance in CD-1 mouse plasma at 5 mg/kg, ip measured up to 480 mins by LC/ESI-MS/MS analysis; format: ADME, organism-based
[9] = Ratio of drug uptake in CD-1 mouse brain to plasma at 5 mg/kg, ip measured up to 480 mins by LC/ESI-MS/MS analysis; format: ADME, organism-based; conditions: read-out: BPR
[10] = AUC (0 to total) in CD-1 mouse brain at 5 mg/kg, ip measured up to 480 mins by LC/ESI-MS/MS analysis; format: ADME, organism-based; conditions: in vivo, 8 h
[11] = MRT in CD-1 mouse brain at 5 mg/kg, ip measured up to 480 mins by LC/ESI-MS/MS analysis; format: ADME, organism-based
[12] = Tmax in CD-1 mouse brain at 5 mg/kg, ip measured up to 480 mins by LC/ESI-MS/MS analysis; format: ADME, organism-based
[13] = Mutagenicity in Salmonella typhimurium TA100 at 50 ug/plate preincubated for 20 mins followed by addition of top agar and measured after 48 hrs by Ames test; format: toxicity; conditions: salmonella enterica subsp. enterica serovar typhimurium
[14] = Mutagenicity in Salmonella typhimurium TA102 at 5 ug/plate preincubated for 20 mins followed by addition of top agar and measured after 48 hrs by Ames test; format: toxicity; conditions: salmonella enterica subsp. enterica serovar typhimurium
[15] = Mutagenicity in Salmonella typhimurium TA100 at 100 ug/plate preincubated for 20 mins followed by addition of top agar and measured after 48 hrs by Ames test; format: toxicity; conditions: salmonella enterica subsp. enterica serovar typhimurium
[16] = molecular target: Adenosine receptor A1 (Homo sapiens) (UniProt P30542); assay: Displacement of [3H]DPCPX from recombinant human A1 receptor at 10 uM after 60 mins by radiometric scintillation analysis relative to control
[17] = molecular target: Adenosine receptor A2a (Homo sapiens) (UniProt P29274); assay: Displacement of [3H]CGS 21680 from recombinant human A2A receptor at 10 uM after 120 mins by radiometric scintillation analysis relative to control
[18] = molecular target: Adrenergic receptor alpha-1 (Rattus norvegicus) (UniProt P15823+P23944+P43140); assay: Displacement of [3H]prazosin from rat brain alpha 1 receptor at 10 uM after 60 mins by radiometric scintillation analysis relative to control
[19] = organism: Rattus norvegicus; assay: Displacement of [3H]-Flumazenil from GABAA/BZD receptor in rat cortical membranes incubated for 60 mins by radioligand binding assay relative to control; format: cell membranes
[20] = molecular target: B2 bradykinin receptor (Homo sapiens) (UniProt P30411); assay: Displacement of [3H]bradykinin from recombinant human B2 receptor at 10 uM after 60 mins by radiometric scintillation analysis relative to control
[21] = molecular target: Galanin receptor type 2 (Homo sapiens) (UniProt O43603); assay: Displacement of [125I]galanin from recombinant human GAL2 receptor at 10 uM after 120 mins by radiometric scintillation analysis relative to control
[22] = molecular target: C-X-C chemokine receptor type 2 (Homo sapiens) (UniProt P25025); assay: Displacement of [125I]IL-8 from recombinant human CXCR2 at 10 uM after 60 mins by radiometric scintillation analysis relative to control
[23] = molecular target: C-C chemokine receptor type 1 (Homo sapiens) (UniProt P32246); assay: Displacement of [125I]MIP-1alpha from recombinant human CCR1 receptor at 10 uM after 120 mins by radiometric scintillation analysis relative to control
[24] = molecular target: Histamine H1 receptor (Homo sapiens) (UniProt P35367); assay: Displacement of [3H]pyrilamine from recombinant human H1 histamine receptor at 10 uM after 60 mins by radiometric scintillation analysis relative to control
[25] = molecular target: Muscarinic acetylcholine receptor M1 (Homo sapiens) (UniProt P11229); assay: Displacement of [3H]pirenzepine from recombinant human M1 receptor at 10 uM after 60 mins by radiometric scintillation analysis relative to control
[26] = molecular target: Neuromedin-K receptor (Homo sapiens) (UniProt P29371); assay: Displacement of [3H]SR 142801 from recombinant human NK3 receptor at 10 uM after 120 mins by radiometric scintillation analysis relative to control
[27] = molecular target: Kappa-type opioid receptor (Homo sapiens) (UniProt P41145); assay: Displacement of [3H]U69593 from human KOR receptor at 10 uM after 60 mins by radiometric scintillation analysis relative to control
[28] = molecular target: Prostaglandin E2 receptor EP4 subtype (Homo sapiens) (UniProt P35408); assay: Displacement of [3H]PGE2 from recombinant human EP4 receptor at 10 uM after 120 mins by radiometric scintillation analysis relative to control
[29] = molecular target: 5-hydroxytryptamine receptor 1A (Homo sapiens) (UniProt P08908); assay: Displacement of [3H]8-OH-DPAT from recombinant human 5-HT1A receptor at 10 uM after 60 mins by radiometric scintillation analysis relative to control
[30] = molecular target: 5-hydroxytryptamine receptor 2B (Homo sapiens, UniProt P41595); assay: Displacement of [125I](+/-)DOI from recombinant human 5-HT2B receptor at 10 uM after 60 mins by radiometric scintillation analysis relative to control
[31] = molecular target: 5-hydroxytryptamine receptor 6 (Homo sapiens) (UniProt P50406); assay: Displacement of [3H]LSD from recombinant human 5-HT6 receptor at 10 uM after 120 mins by radiometric scintillation analysis relative to control
[32] = molecular target: Vasoactive intestinal polypeptide receptor 1 (Homo sapiens) (UniProt P32241); assay: Displacement of [125I]VIP recombinant human VPAC1 receptor at 10 uM after 120 mins by radiometric scintillation analysis relative to control
[33] = organism: Rattus norvegicus; assay: Displacement of [125I]alpha-dendrotoxin rat brain voltage-gated potassium channel at 10 uM after 60 mins by radiometric scintillation analysis relative to control
[34] = Displacement of [3H]batrachotoxinin from rat brain sodium channel site 2 after 60 mins by scintillation counting analysis

Sequence of C-X-C chemokine receptor type 2 (Homo sapiens) (P25025 whole entry): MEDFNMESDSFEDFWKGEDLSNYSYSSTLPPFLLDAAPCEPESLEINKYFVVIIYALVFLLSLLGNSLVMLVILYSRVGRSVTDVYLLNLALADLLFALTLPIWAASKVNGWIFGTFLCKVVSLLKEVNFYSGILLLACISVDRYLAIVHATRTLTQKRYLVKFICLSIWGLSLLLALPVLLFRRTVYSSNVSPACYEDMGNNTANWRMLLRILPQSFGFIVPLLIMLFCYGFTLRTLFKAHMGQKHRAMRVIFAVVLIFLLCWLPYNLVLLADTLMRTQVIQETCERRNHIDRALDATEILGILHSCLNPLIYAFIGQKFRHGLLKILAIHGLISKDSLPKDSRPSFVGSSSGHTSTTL
Sequence of 5-hydroxytryptamine receptor 6 (Homo sapiens) (P50406 whole entry): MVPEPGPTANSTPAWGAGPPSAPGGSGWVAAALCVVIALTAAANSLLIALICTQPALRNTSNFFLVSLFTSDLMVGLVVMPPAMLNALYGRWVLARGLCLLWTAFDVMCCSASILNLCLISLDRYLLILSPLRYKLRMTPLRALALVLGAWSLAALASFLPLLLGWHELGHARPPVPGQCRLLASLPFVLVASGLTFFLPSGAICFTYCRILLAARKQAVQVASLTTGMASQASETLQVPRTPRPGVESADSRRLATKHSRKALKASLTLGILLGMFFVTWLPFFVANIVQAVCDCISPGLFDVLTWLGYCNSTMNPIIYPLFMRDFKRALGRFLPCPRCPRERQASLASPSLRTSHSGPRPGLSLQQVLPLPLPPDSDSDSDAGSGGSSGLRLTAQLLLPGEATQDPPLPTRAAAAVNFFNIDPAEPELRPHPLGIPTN
Sequence of 5-hydroxytryptamine receptor 2B (P41595 whole entry): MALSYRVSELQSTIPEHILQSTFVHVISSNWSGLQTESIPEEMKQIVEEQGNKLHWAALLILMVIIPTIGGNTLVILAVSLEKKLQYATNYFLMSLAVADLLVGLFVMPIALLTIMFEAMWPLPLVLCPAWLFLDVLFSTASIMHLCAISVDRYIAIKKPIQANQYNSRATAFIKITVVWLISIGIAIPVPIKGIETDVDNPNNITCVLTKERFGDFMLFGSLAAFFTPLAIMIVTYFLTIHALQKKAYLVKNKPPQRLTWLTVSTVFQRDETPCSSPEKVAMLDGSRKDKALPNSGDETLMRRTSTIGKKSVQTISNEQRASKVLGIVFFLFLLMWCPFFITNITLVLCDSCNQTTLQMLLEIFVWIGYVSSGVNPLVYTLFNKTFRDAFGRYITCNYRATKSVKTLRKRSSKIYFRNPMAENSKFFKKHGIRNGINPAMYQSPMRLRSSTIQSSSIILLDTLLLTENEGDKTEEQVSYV
Sequence of Prostaglandin E2 receptor EP4 subtype (Homo sapiens) (P35408 whole entry): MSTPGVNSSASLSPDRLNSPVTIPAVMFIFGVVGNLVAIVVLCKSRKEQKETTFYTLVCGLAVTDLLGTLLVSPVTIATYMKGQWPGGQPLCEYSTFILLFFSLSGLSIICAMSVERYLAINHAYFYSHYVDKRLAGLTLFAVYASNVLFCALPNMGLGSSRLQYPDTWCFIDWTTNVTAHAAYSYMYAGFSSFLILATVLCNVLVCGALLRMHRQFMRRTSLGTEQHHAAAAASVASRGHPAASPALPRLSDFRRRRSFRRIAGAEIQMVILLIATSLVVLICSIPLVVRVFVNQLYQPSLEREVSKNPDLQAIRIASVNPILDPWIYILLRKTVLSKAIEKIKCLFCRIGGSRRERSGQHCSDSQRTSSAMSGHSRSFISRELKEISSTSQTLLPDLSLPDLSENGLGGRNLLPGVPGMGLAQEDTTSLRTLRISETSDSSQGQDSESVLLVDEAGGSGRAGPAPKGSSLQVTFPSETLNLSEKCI
Sequence of C-C chemokine receptor type 1 (Homo sapiens) (P32246 whole entry): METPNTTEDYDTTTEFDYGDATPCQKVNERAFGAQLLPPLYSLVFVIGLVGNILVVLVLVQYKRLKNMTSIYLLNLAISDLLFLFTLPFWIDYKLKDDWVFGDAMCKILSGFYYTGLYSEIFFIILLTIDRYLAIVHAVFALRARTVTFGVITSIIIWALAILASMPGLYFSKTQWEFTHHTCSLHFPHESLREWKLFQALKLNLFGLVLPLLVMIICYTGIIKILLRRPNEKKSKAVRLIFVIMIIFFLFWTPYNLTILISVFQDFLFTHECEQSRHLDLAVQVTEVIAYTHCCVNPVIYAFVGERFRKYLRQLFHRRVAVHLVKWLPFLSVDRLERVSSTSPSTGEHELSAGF
Sequence of 5-hydroxytryptamine receptor 1A (Homo sapiens) (P08908 whole entry): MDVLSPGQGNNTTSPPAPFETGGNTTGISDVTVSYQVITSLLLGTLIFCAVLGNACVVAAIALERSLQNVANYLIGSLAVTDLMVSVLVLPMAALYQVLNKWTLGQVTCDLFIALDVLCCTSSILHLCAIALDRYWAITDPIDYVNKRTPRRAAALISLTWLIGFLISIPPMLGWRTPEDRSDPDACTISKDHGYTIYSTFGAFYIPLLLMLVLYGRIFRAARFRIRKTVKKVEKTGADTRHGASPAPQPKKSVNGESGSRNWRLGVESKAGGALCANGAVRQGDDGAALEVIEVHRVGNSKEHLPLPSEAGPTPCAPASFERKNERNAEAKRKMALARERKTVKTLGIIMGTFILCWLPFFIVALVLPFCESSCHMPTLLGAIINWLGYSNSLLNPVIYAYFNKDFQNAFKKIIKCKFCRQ
Sequence of Serotonin 2 (5-HT2) receptor (Rattus norvegicus) (P08909 whole entry, looked up): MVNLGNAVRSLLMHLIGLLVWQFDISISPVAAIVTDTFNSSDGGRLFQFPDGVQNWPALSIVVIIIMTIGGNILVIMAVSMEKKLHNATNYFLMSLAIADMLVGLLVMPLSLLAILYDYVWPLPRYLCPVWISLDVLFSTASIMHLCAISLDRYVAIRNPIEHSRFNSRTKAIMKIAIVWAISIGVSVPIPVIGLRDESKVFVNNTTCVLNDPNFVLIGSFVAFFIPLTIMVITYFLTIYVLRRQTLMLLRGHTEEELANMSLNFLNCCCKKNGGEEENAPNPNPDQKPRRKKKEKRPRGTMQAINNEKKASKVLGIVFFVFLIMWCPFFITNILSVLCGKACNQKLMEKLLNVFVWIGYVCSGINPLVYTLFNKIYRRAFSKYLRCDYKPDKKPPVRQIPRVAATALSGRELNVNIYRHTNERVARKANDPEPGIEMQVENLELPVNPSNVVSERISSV
Sequence of Serotonin 2 (5-HT2) receptor (Rattus norvegicus) (P14842 whole entry, looked up): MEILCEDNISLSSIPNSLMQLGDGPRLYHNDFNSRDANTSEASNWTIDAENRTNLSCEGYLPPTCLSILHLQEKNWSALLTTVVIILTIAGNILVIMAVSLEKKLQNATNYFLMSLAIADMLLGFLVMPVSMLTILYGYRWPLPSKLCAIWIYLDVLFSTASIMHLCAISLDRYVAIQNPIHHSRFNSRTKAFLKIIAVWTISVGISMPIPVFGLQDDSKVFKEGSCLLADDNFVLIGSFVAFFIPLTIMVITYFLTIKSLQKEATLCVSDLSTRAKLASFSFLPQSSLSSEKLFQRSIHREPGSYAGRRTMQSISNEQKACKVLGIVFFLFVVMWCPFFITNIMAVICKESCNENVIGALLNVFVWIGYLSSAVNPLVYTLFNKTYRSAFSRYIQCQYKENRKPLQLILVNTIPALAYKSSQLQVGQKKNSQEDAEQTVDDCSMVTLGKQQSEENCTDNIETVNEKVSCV
Sequence of Serotonin 2 (5-HT2) receptor (Rattus norvegicus) (P30994 whole entry, looked up): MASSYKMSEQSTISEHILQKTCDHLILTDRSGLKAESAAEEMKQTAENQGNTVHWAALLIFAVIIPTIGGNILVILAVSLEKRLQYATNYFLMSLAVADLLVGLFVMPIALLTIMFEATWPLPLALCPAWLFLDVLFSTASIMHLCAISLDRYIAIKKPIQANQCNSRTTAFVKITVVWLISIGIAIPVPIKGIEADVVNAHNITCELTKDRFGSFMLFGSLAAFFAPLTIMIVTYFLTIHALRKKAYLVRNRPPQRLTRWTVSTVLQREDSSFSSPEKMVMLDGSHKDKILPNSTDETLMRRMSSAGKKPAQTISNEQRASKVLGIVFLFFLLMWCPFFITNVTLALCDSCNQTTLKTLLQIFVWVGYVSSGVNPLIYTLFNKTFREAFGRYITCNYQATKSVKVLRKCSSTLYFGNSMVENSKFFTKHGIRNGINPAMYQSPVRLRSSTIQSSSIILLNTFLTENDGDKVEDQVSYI
Sequence of Kappa-type opioid receptor (Homo sapiens) (P41145 whole entry): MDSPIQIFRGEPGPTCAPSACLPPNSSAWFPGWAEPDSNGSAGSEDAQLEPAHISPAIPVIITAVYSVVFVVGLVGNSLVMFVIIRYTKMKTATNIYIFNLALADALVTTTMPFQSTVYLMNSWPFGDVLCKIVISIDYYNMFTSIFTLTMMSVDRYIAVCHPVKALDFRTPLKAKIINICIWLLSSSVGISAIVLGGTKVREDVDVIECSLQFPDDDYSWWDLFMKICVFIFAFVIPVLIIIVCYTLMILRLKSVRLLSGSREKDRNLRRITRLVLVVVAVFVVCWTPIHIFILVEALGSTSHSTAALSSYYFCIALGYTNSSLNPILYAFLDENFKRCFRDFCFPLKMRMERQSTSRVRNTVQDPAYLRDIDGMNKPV
Sequence of Adenosine receptor A1 (Homo sapiens) (P30542 whole entry): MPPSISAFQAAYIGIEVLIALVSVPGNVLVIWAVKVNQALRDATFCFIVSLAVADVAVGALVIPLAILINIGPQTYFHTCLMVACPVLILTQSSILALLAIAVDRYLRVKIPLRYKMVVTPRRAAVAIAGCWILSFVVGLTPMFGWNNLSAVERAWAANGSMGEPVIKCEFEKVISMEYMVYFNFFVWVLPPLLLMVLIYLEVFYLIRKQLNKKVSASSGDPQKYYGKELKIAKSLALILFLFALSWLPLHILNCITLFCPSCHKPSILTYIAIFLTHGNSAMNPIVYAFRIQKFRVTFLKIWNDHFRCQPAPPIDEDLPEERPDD

For `Cl.Cl.O=c1c2cc(Cl)ccc2oc2ccc(CN3CCN(CCOCCO)CC3)cc12`, which inhibition [1] is on record?
Its inhibition is 47%.

And the Activity [2]?
Its Activity is 66.6%.

And the Activity [3]?
Its Activity is 50.1%.

What about the half-life [4] of the same molecule?
The half-life was 2.89 h.

And the Cmax [5]?
The Cmax was 1920 ng/mL.

What about the Tmax [6] of the same molecule?
The Tmax was 0.25 h.

And the Vd/F [7]?
The Vd/F was 3.06 L/kg.

And the CL/F [8]?
Its CL/F is 12.2 mL/min/kg.

What about the Kp at 8 h [9] of the same molecule?
Its Kp at 8 h is 9.79.

And the AUCt [10]?
Its AUCt is 3227321 ng·min/g.

What about the MRT [11] of the same molecule?
The MRT was 2.58 h.

What about the Tmax [12] of the same molecule?
Its Tmax is 0.5 h.

What about the Activity_index [13] of the same molecule?
The Activity_index was 0.64.

What about the Activity_index [14] of the same molecule?
The Activity_index was 0.93.

And the Activity_index [15]?
The Activity_index was 0.45.

What about the inhibition [16] of the same molecule?
Its inhibition is 0.6%.

And the inhibition [17]?
Its inhibition is 12.2%.

What about the inhibition [18] of the same molecule?
Its inhibition is 8.5%.

And the inhibition [19]?
The inhibition was 9.4%.

And the inhibition [20]?
Its inhibition is -7%.

What about the inhibition [21] of the same molecule?
Its inhibition is 1.4%.

And the inhibition [22]?
The inhibition was 19.8%.

And the inhibition [23]?
Its inhibition is -3.1%.

What about the inhibition [24] of the same molecule?
The inhibition was 43.1%.

What about the inhibition [25] of the same molecule?
The inhibition was 52.3%.

And the inhibition [26]?
The inhibition was 3.2%.

And the inhibition [27]?
The inhibition was 12.2%.

What about the inhibition [28] of the same molecule?
Its inhibition is 10.9%.

What about the inhibition [29] of the same molecule?
The inhibition was -2.6%.

What about the inhibition [30] of the same molecule?
The inhibition was 76.8%.

And the inhibition [31]?
Its inhibition is 2.5%.

And the inhibition [32]?
The inhibition was -1.2%.

What about the inhibition [33] of the same molecule?
The inhibition was -3.1%.

What about the Ki [34] of the same molecule?
The Ki was 1.34 µM.
